How the values were obtained:
Type in all cases: cell-based
N87 = experiment: In vitro tumor cell proliferation assay (Cell Titer-Glo) in N87 cells; settings: N87 human gastric carcinoma overexpressing HER2 and HER1; 72 hours exposure; read-out: IC50, activities in N87 cell lines
Outline: (§1)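 Viability after 72 h drug exposure at 37 °C was read as CellTiter-Glo ATP luminescence, giving IC50. Cells (2.5×10^3/well, RPMI + 10% FBS) were compound-treated one day post-seeding, 0.1% DMSO final: A431 overexpresses HER1, N87 overexpresses HER2 and HER1.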

A431 cells = experiment: In vitro tumor cell proliferation assay (Cell Titer-Glo) in A431 cells; settings: Homo sapiens, A-431, 72 h, A431 human epidermoid carcinoma overexpressing HER1; 72 hours exposure; read-out: IC50, activities in A431 cell lines
Outline: as §1

H1975 cells = experiment: In vitro tumor cell proliferation assay (Cell Titer-Glo) in H1975 cells; settings: NCI-H1975; H1975 human NSCLC expressing mutant HER1 (L858R,T790M); 72 hours exposure; read-out: IC50, activities in H 1975 cell lines
Outline: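 After 72 h compound exposure at 37° C (top 10 uM down to 64 pM, 0.1% DMSO), viability of EGFR L858R/T790M-mutant H1975 cells was read as ATP luminescence.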

`O=C(/C=C/CN1CCOCC1)N1CCc2c(sc3ncnc(Nc4cccc(Br)c4)c23)C1` [Example 193, N-(3-bromophenyl)-7-[(2E)-4-morpholin-4-ylbut-2-enoyl]-5,6,7,8-tetrahydropyrido [4′,3′:4,5]thieno[2,3-d]pyrimidin-4-amine] was tested, and the IC50 (N87) was less than 200 nM, the IC50 (A431 cells) was 1000 to 10000 nM and the IC50 (H1975 cells) was 1000 to 10000 nM.

Work on `CC(C)N(C)C/C=C/C(=O)N1CCc2c(sc3ncnc(Nc4ccc(OCc5cccnc5)c(Cl)c4)c23)C1` [Example 91, N-[3-chloro-4-(pyridin-3-ylmethoxy)phenyl]-7-{(2E)-4-[isopropyl(methyl)amino]but-2-enoyl}-5,6,7,8-tetrahydropyrido [4′,3′:4,5]thieno[2,3-d]pyrimidin-4-amine] yielded an IC50 (N87) of less than 200 nM, an IC50 (A431 cells) of 1000 to 10000 nM and an IC50 (H1975 cells) of 200 to 1000 nM.

With `CCN(C/C=C/C(=O)N1CCc2c(sc3ncnc(Nc4ccc(Cl)c(Cl)c4)c23)C1)C1CCCCC1` [Example 200, 7-{(2E)-4-[cyclohexyl(ethyl)amino]but-2-enoyl}-N-(3,4-dichlorophenyl)-5,6,7,8-tetrahydropyrido [4′,3′:4,5]thieno[2,3-d]pyrimidin-4-amine] the IC50 (N87) was less than 200 nM, the IC50 (A431 cells) was 200 to 1000 nM and the IC50 (H1975 cells) was 200 to 1000 nM.

`O=C(/C=C/CN1CCCC1)N1CCc2c(sc3ncnc(Nc4cccc(Br)c4)c23)C1` [Example 194, N-(3-bromophenyl)-7-[(2E)-4-pyrrolidin-1-ylbut-2-enoyl]-5,6,7,8-tetrahydropyrido [4′,3′:4,5]thieno[2,3-d]pyrimidin-4-amine] showed an IC50 (N87) of less than 200 nM, an IC50 (A431 cells) of less than 200 nM and an IC50 (H1975 cells) of less than 200 nM.

With `CC(C)N(C)C/C=C/C(=O)N1CCc2c(sc3ncnc(Nc4ccc5c(ccn5Cc5ccccc5)c4)c23)C1` [Example 118, N-(1-benzyl-1H-indol-5-yl)-7-{(2E)-4-[isopropyl(methyl)amino]but-2-enoyl}-5,6,7,8-tetrahydropyrido [4′,3′:4,5]thieno[2,3-d]pyrimidin-4-amine] the IC50 (N87) was less than 200 nM, the IC50 (A431 cells) was less than 200 nM and the IC50 (H1975 cells) was less than 200 nM.

`CCN(C/C=C/C(=O)N1CCc2c(sc3ncnc(Nc4ccc(OCc5ccccn5)c(Cl)c4)c23)C1)C(C)C` [Example 70, N-[3-chloro-4-(pyridin-2-ylmethoxy)phenyl]-7-{(2E)-4-[ethyl(isopropyl)amino]but-2-enoyl}-5,6,7,8-tetrahydropyrido [4′,3′:4,5]thieno[2,3-d]pyrimidin-4-amine] was tested, and the IC50 (N87) was less than 200 nM, the IC50 (A431 cells) was 1000 to 10000 nM and the IC50 (H1975 cells) was less than 200 nM.

`CC(C)N(C)C/C=C/C(=O)N1CCc2c(sc3ncnc(Nc4ccc5c(ccn5Cc5cccc(F)c5)c4)c23)C1` [Example 122, N-[1-(3-fluorobenzyl)-1H-indol-5-yl]-7-{(2E)-4-[isopropyl(methyl)amino]but-2-enoyl}-5,6,7,8-tetrahydropyrido [4′,3′:4,5]thieno[2,3-d]pyrimidin-4-amine] was tested, and the IC50 (N87) was less than 200 nM, the IC50 (A431 cells) was 200 to 1000 nM and the IC50 (H1975 cells) was less than 200 nM.

In the case of `O=C(/C=C/CN1CCOCC1)N1CCc2c(sc3ncnc(Nc4ccc(Cl)c(Cl)c4)c23)C1` [Example 191, N-(3,4-dichlorophenyl)-7-[{2E)-4-morpholin-4-ylbut-2-enoyl]-5,6,7,8-tetrahydropyrido [4′,3′:4,5]thieno[2,3-d]pyrimidin-4-amine], the IC50 (N87) is reported as less than 200 nM, the IC50 (A431 cells) is reported as 200 to 1000 nM and the IC50 (H1975 cells) is reported as 1000 to 10000 nM.

In the case of `CN(C)C/C=C/C(=O)N1CCc2c(sc3ncnc(Nc4cc(Cl)cc(Cl)c4)c23)C1` [Example 174, N-(3,5-dichlorophenyl)-7-[(2E)-4-(dimethylamino)but-2-enoyl]-5,6,7,8-tetrahydropyrido [4′,3′:4,5]thieno[2,3-d]pyrimidin-4-amine], the IC50 (N87) is reported as less than 200 nM, the IC50 (A431 cells) is reported as 1000 to 10000 nM and the IC50 (H1975 cells) is reported as 1000 to 10000 nM.

In the case of `O=C(/C=C/Cn1ccnc1)N1CCc2c(sc3ncnc(Nc4ccc(OCc5ccccn5)c(Cl)c4)c23)C1` [Example 51, N-[3-chloro-4-(pyridin-2-ylmethoxy)phenyl]-7-[(2E)-4-(1H-imidazol-1-yl)but-2-enoyl]-5,6,7,8-tetrahydropyrido [4′,3′:4,5]thieno[2,3-d]pyrimidin-4-amine], the IC50 (N87) is reported as less than 200 nM, the IC50 (A431 cells) is reported as 200 to 1000 nM and the IC50 (H1975 cells) is reported as 1000 to 10000 nM.

With `O=C(/C=C/CN1CCCCC1)N1CCc2c(sc3ncnc(Nc4cccc(Br)c4)c23)C1` [Example 196, N-(3-bromophenyl)-7-[(2E)-4-piperidin-1-ylbut-2-enoyl]-5,6,7,8-tetrahydropyrido [4′,3′:4,5]thieno[2,3-d]pyrimidin-4-amine] the IC50 (N87) was less than 200 nM, the IC50 (A431 cells) was less than 200 nM and the IC50 (H1975 cells) was 200 to 1000 nM.

Compound `CN(C/C=C/C(=O)N1CCc2c(sc3ncnc(Nc4cccc(Br)c4)c23)C1)C(C)(C)C` [Example 198, N-(3-bromophenyl)-7-{(2E)-4-[tert-butyl(methyl)amino]but-2-enoyl}-5,6,7,8-tetrahydropyrido [4′,3′:4,5]thieno[2,3-d]pyrimidin-4-amine] has an IC50 (N87) of less than 200 nM, an IC50 (A431 cells) of less than 200 nM and an IC50 (H1975 cells) of 200 to 1000 nM.

`O=C(/C=C/CN1CCOCC1)N1CCc2c(sc3ncnc(Nc4ccc(OCc5ccccn5)c(Cl)c4)c23)C1` [Example 1, 1-{4-[3-Chloro-4-(pyridin-2-ylmethoxy)-phenylamino]-5,8-dihydro-6H-9-thia-1,3,7 triaza-fluoren-7-yl}-4-morpholin-4-yl-but-2-en-1-one] was tested, and the IC50 (N87) was less than 200 nM, the IC50 (A431 cells) was less than 200 nM and the IC50 (H1975 cells) was 200 to 1000 nM.

Work on `CN(C)C/C=C/C(=O)N1CCc2c(sc3ncnc(Nc4ccc5c(c4)CCC5)c23)C1` [Example 185, N-(2,3-dihydro-1H-inden-5-yl)-7-[(2E)-4-(dimethylamino)but-2-enoyl]-5,6,7,8-tetrahydropyrido [4′,3′:4,5]thieno[2,3-d]pyrimidin-4-amine] yielded an IC50 (N87) of less than 200 nM, an IC50 (A431 cells) of 200 to 1000 nM and an IC50 (H1975 cells) of 1000 to 10000 nM.

`CCN(CC)C/C=C/C(=O)N1CCc2c(sc3ncnc(Nc4ccc(OCc5cnccn5)c(Cl)c4)c23)C1` [Example 72, N-[3-chloro-4-(pyrazin-2-ylmethoxy)phenyl]-7-[(2E)-4-(diethylamino)but-2-enoyl]-5,6,7,8-tetrahydropyrido [4′,3′:4,5]thieno[2,3-d]pyrimidin-4-amine] was tested, and the IC50 (N87) was less than 200 nM, the IC50 (A431 cells) was 1000 to 10000 nM and the IC50 (H1975 cells) was 200 to 1000 nM.

In the case of `CC(C)CN(C)C/C=C/C(=O)N1CCc2c(sc3ncnc(Nc4ccc(OCc5ccccn5)c(Cl)c4)c23)C1` [Example 66, N-[3-chloro-4-(pyridin-2-ylmethoxy)phenyl]-7-{(2E)-4-[isobutyl(methyl)amino]but-2-enoyl}-5,6,7,8-tetrahydropyrido [4′,3′:4,5]thieno[2,3-d]pyrimidin-4-amine], the IC50 (N87) is reported as less than 200 nM, the IC50 (A431 cells) is reported as 200 to 1000 nM and the IC50 (H1975 cells) is reported as 200 to 1000 nM.

For `C#Cc1cccc(Nc2ncnc3sc4c(c23)CCN(C(=O)C=C)C4)c1` [Example 27, 7-acryloyl-N-(3-ethynylphenyl)-5,6,7,8-tetrahydropyrido [4′,3′:4,5]thieno[2,3-d]pyrimidin-4-amine], the IC50 (N87) was less than 200 nM, the IC50 (A431 cells) was 1000 to 10000 nM and the IC50 (H1975 cells) was 200 to 1000 nM.

`CCN(C)C/C=C/C(=O)N1CCc2c(sc3ncnc(Nc4ccc(OCc5cccc(C)n5)c(Cl)c4)c23)C1` [Example 76, N-{3-chloro-4-[(6-methylpyridin-2-yl)methoxy]phenyl}-7-{(2E)-4-[ethyl(methyl)amino]but-2-enoyl}-5,6,7,8-tetrahydropyrido [4′,3′:4,5]thieno[2.3-d]pyrimidin-4-amine] was tested, and the IC50 (N87) was less than 200 nM, the IC50 (A431 cells) was 1000 to 10000 nM and the IC50 (H1975 cells) was 1000 to 10000 nM.

`CN(C)C/C=C/C(=O)N1CCc2c(sc3ncnc(Nc4ccc(F)c(Cl)c4)c23)C1` [Example 7, N-(3-chloro-4-fluorophenyl)-7-[(2E)-4-(dimethylamino)but-2-enoyl]-5,6,7,8-tetrahydropyrido[4′,3′:4,5]thieno[2,3-d]pyrimidin-4-amine] gave an IC50 (N87) of less than 200 nM, an IC50 (A431 cells) of less than 200 nM and an IC50 (H1975 cells) of 200 to 1000 nM.

`CCN(C)C/C=C/C(=O)N1CCc2c(sc3ncnc(Nc4ccc5c(ccn5Cc5ccccn5)c4)c23)C1` [Example 127, 7-{(2E)-4-[ethyl(methyl)amino]but-2-enoyl}-N-[l-(pyridin-ylmethyl)1H-indol-5-yl]-5,6,7,8-tetrahydropyrido [4′,3′:4,5]thieno[2,3-d]pyrimidin-4-amine] was tested, and the IC50 (N87) was less than 200 nM, the IC50 (A431 cells) was 200 to 1000 nM and the IC50 (H1975 cells) was 200 to 1000 nM.

For `C=C(CN(CC)CC)C(=O)N1CCc2c(sc3ncnc(Nc4ccc(OCc5ccccn5)c(Cl)c4)c23)C1` [Example 143, N-[3-chloro-4-(pyridin-2-ylmethoxy)phenyl]-7-{2-[(diethylamino)methyl]acryloyl}-5,6,7,8-tetrahydropyrido[4′,3′:4,5]thieno[2,3-d]pyrimidin-4-amine], the IC50 (N87) was less than 200 nM, the IC50 (A431 cells) was 200 to 1000 nM and the IC50 (H1975 cells) was 200 to 1000 nM.

For `O=C(/C=C/CN1CCCC1)N1CCc2c(sc3ncnc(Nc4ccc(F)c(Cl)c4)c23)C1` [Example 21, N-(3-chloro-4-fluorophenyl)-7-[(2E)-4-pyrrolidin-1-ylbut-2-enoyl]-5,6,7,8-tetrahydropyrido [4′,3′:4,5]thieno[2,3-d]pyrimidin-4-amine], the IC50 (N87) was less than 200 nM, the IC50 (A431 cells) was less than 200 nM and the IC50 (H1975 cells) was less than 200 nM.

`CCN(C)C/C=C/C(=O)N1CCc2c(sc3ncnc(Nc4ccc(F)c(Cl)c4)c23)C1` [Example 40, N-(3-chloro-4-fluorophenyl)-7-{(2E)-4-[ethyl(methyl)amino]but-2-enoyl}-5,6,7,8-tetrahydropyrido [4′,3′:4,5]thieno[2,3-d]pyrimidin-4-amine] showed an IC50 (N87) of less than 200 nM, an IC50 (A431 cells) of 200 to 1000 nM and an IC50 (H1975 cells) of 200 to 1000 nM.

In the case of `CN(C)C/C=C/C(=O)N1CCc2c(sc3ncnc(Nc4cccc(Cl)c4)c23)C1` [Example 164, N-(3-chlorophenyl)-7-[(2E)-4-(dimethylamino)but-2-enoyl]-5,6,7,8-tetrahydropyrido [4′,3′:4,5]thieno[2,3-d]pyrimidin-4-amine], the IC50 (N87) is reported as less than 200 nM, the IC50 (A431 cells) is reported as 200 to 1000 nM and the IC50 (H1975 cells) is reported as 200 to 1000 nM.

— patent publication US8501755B2, “Tetrahydropyridothienopyrimidine compounds and methods of use thereof” (Bayer Intellectual Property GmbH, priority 2006, dated 2013)
